{"source": "patent US20140072573A1", "about": "“METHOD OF TREATING RHEUMATOID ARTHRITIS” (Institut National de la Sante et de la Recherche Medicale …, priority 2012, published 2014)", "type_in_all_cases": "cell-based, human", "key": {"[1]": {"tested_on": "VE-cadherin", "test": "VE-cadherin extracellular fragment (VE-90) release in HUVEC conditioned media, western blot", "settings": "for effect on TNFα-induced VE-90 release: 15 min pre-treatment, TNFα 100 ng/ml 45 min", "protocol": "(§1) Cell culture, extraction and immunoprecipitation: Endothelial cells were obtained from human umbilical vein (HUVECs) and grown to reach confluence in M199 medium supplemented with 10% fetal bovine serum (FCS), 2% Low Serum Growth Supplement LSGS (Cascade Biologics, USA) as previously described (Garnier-Raveaud et al., 2001). The 80% confluent HUVECs (passages 2 or 4) were used for most experiments. Confluent cells in 60 mm dishes were serum-starved in 1% fetal calf serum in M 199 for 24 h prior to testing. Before TNFα stimulation the cells were serum-starved for 2 hours, and then pre-treated for 15 min with sodium pervanadate (10 μM) and/or inhibitors as mentioned in text and figure legends. HUVECs were then stimulated with different concentrations of TNFα for various lengths of time as indicated. Otherwise, in most parts of this study, precisely in inhibition experiments TNFα was used at high concentration (i.e 100 ng/mL). As the inhibitors were diluted in dimethyl-sulfoxide (DMSO), control cells were systematically treated with DMSO 0.1% in any inhibition experiment.\nFor conditioned medium analysis, the medium was collected and centrifuged for 15 minutes at 14,000 g at 4° C. The resulting supernatant was collected and proteins were concentrated by trichloro acetic acid precipitation (10%) overnight. After centrifugation at 14,000 g for 30 min, the pellet was re-suspended in Tris 50 mM (pH 11) and analyzed by SDS-PAGE and Western blotting.\n(§2) Western blotting: Proteins were resolved by SDS-PAGE and transferred to nitrocellulose."}, "[2]": {"tested_on": "HUVECs", "test": "Cell viability of treated HUVECs"}, "[3]": {"tested_on": "VE-cadherin", "test": "VE-cadherin cytoplasmic fragment (VE-cyto) and 125 kDa full length protein in HUVEC extracts, western blot", "settings": "for effect on TNFα-induced VE-cyto generation: L685 present", "protocol": "as §1\n(§3) Cells stimulation was stopped by medium collection and addition of 500 μl of ice-cold buffer A. The cells were harvested, homogenized and sonicated for 20 seconds. Cell lysates were collected after centrifugation for 15 min at 40° C. at 14,000 g. The protein concentration was measured using the micro-bicinchoninic acid protein assay and cell lysates were stored at −80° C. before use.\nas §2"}, "[4]": {"tested_on": "VE-cadherin", "test": "VE-cadherin tyrosine phosphorylation in HUVEC lysates, immunoprecipitation and phosphotyrosine western blot", "settings": "50 μM, TNFα 100 ng/ml", "protocol": "as §1\nas §3, with “Cell lysates were collected after centrifugation for 15 min at 40° C. at 14,000 g.” left out, “use. […]” for “use.”"}}, "note": "Entries after “also recorded” stand apart in the source; their conditions may differ."}
{"compound": "CNC(=O)[C@H](Cc1c[nH]c2ccccc12)NC(=O)[C@@H](CC(=O)NO)CC(C)C", "note": "[GM6001]", "values": [{"measurement": "effect on TNFα-induced VE-90 release", "setting": "[1]; 10 μM", "value": "drastically decreased"}, {"measurement": "cell viability", "setting": "[2]; 10 μM", "value": "without affecting cell viability"}, {"measurement": "effect on TNFα-induced VE-cyto generation", "setting": "[3]; 10 μM pre-treatment", "value": "almost completely abrogated"}]}
{"compound": "CC(C)(C)n1nc(-c2ccc(Cl)cc2)c2c(N)ncnc21", "note": "[PP2]", "values": [{"measurement": "effect on TNFα-induced VE-90 release", "setting": "[1]; 10 μM", "value": "strongly decreased"}, {"measurement": "cell viability", "setting": "[2]; 10 μM", "value": "without affecting cell viability"}, {"measurement": "effect on TNFα-induced VE-cyto generation", "setting": "[3]; 10 μM pre-treatment", "value": "strongly impaired"}]}
{"compound": "O=c1c(-c2ccc(O)cc2)coc2cc(O)cc(O)c12", "note": "[genistein]", "values": [{"measurement": "effect on TNFα-induced VE-90 release", "setting": "[1]; 50 μM", "value": "strongly decreased"}, {"measurement": "cell viability", "setting": "[2]; 50 μM", "value": "without affecting cell viability"}, {"measurement": "effect on TNFα-induced VE-cadherin tyrosine phosphorylation", "setting": "[4]", "value": "inhibited"}, {"measurement": "effect on TNFα-induced VE-cyto generation", "setting": "[3]; 50 μM pre-treatment", "value": "strongly impaired"}, {"measurement": "effect on VE-cyto generation with or without pervanadate pre-treatment", "setting": "[3]; both conditions (pervanadate pre-treated or not), TNFα", "value": "still decreased"}]}
{"compound": "TNFα", "values": [{"measurement": "VE-90 release versus TNFα concentration", "setting": "[1]; HUVECs, TNFα 0 up to 10 ng/ml, 45 min", "value": "increased in a dose-dependent manner; also recorded: dose-dependent release"}, {"measurement": "time of TNFα stimulation after which VE-90 was detected", "setting": "[1]; HUVECs, TNFα 100 ng/ml", "value": 10, "unit": "min"}, {"measurement": "VE-90 release in conditioned media over time", "setting": "[1]; HUVECs, TNFα 100 ng/ml, 5 to 60 min", "value": "time-dependent release; also recorded: increased in a time-dependent manner up to 60 min"}, {"measurement": "low TNFα concentration at which VE-90 release was early detected", "setting": "[1]; HUVECs, dose-response 0 up to 10 ng/ml, 45 min", "value": 0.5, "unit": "ng/mL"}, {"measurement": "appearance of VE-cyto upon TNFα challenge", "setting": "[3]; HUVEC extracts, γ-secretase inhibitor L685 present, TNFα 100 ng/ml", "value": "clearly detected"}]}
{"compound": "sodium pervanadate", "values": [{"measurement": "effect on VE-cyto generation upon cytokine treatment", "setting": "[3]; pervanadate pre-treated versus non pre-treated HUVECs", "value": "tremendous increase"}]}
